Assay results as given in PubChem BioAssay (NCI).
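Grown in 96-well plates, cells were treated for 48 hours with each compound at five concentrations. Insufficient inhibition: endpoint recorded as highest concentration tested. TGI denotes the concentration required for complete inhibition of growth.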

test system: OVCAR-5 ovarian; assay: NCI anticancer screen, dose series, 48 h

| SMILES | TGI [µM] |
| --- | --- |
| Cc1ccc(O)c(-c2cc(-c3cccc(Br)c3)on2)c1 | > 100 |
| ClC(Cl)(Cl)C(N1CCN(c2ccccc2)CC1)N1CCN(c2ccccc2)CC1 | > 100 |
| O=c1c(Cc2c(O)ccc3ccccc23)nnc2sc(-c3nn4c(=O)c(Cc5c(O)ccc6ccccc56)nnc4s3)nn12 | > 100 |
| Cc1[nH]c(=O)[nH]c(=S)c1C(=O)NC1C2CCCCC2NC2CCCCC21 (stereo not given) | 34.1 |
| C/C(=C\COc1cc(O)c2c(c1)C(=O)c1cc(C)cc(O)c1C2=O)CCC1OC1(C)C (stereo not given) | > 100 |

test system: SK-MEL-28 melanoma; assay: NCI anticancer screen, dose series, 48 h

| SMILES | TGI [µM] |
| --- | --- |
| Cc1ccc(O)c(-c2cc(-c3cccc(Br)c3)on2)c1 | 52.8 |
| ClC(Cl)(Cl)C(N1CCN(c2ccccc2)CC1)N1CCN(c2ccccc2)CC1 | > 100 |
| Cc1[nH]c(=O)[nH]c(=S)c1C(=O)NC1C2CCCCC2NC2CCCCC21 (stereo not given) | 23.8 |
| C/C(=C\COc1cc(O)c2c(c1)C(=O)c1cc(C)cc(O)c1C2=O)CCC1OC1(C)C (stereo not given) | > 100 |

test system: SW-620 colon; assay: NCI anticancer screen, dose series, 48 h

| SMILES | TGI [µM] |
| --- | --- |
| Cc1ccc(O)c(-c2cc(-c3cccc(Br)c3)on2)c1 | 46.7 |
| O=c1c(Cc2c(O)ccc3ccccc23)nnc2sc(-c3nn4c(=O)c(Cc5c(O)ccc6ccccc56)nnc4s3)nn12 | > 100 |
| Cc1[nH]c(=O)[nH]c(=S)c1C(=O)NC1C2CCCCC2NC2CCCCC21 (stereo not given) | 40.2 |

test system: HL-60(TB) leukemia; assay: NCI anticancer screen, dose series, 48 h

| SMILES | TGI [µM] |
| --- | --- |
| Cc1ccc(O)c(-c2cc(-c3cccc(Br)c3)on2)c1 | 81.9 |
| O=c1c(Cc2c(O)ccc3ccccc23)nnc2sc(-c3nn4c(=O)c(Cc5c(O)ccc6ccccc56)nnc4s3)nn12 | > 100 |
| Cc1[nH]c(=O)[nH]c(=S)c1C(=O)NC1C2CCCCC2NC2CCCCC21 (stereo not given) | > 100 |

test system: SNB-75 CNS; assay: NCI anticancer screen, dose series, 48 h

| SMILES | TGI [µM] |
| --- | --- |
| Cc1ccc(O)c(-c2cc(-c3cccc(Br)c3)on2)c1 | 86.2 |
| ClC(Cl)(Cl)C(N1CCN(c2ccccc2)CC1)N1CCN(c2ccccc2)CC1 | > 100 |
| O=c1c(Cc2c(O)ccc3ccccc23)nnc2sc(-c3nn4c(=O)c(Cc5c(O)ccc6ccccc56)nnc4s3)nn12 | 39.9 |
| Cc1[nH]c(=O)[nH]c(=S)c1C(=O)NC1C2CCCCC2NC2CCCCC21 (stereo not given) | 32.3 |
| C/C(=C\COc1cc(O)c2c(c1)C(=O)c1cc(C)cc(O)c1C2=O)CCC1OC1(C)C (stereo not given) | > 100 |

test system: MDA-MB-435; assay: NCI anticancer screen, dose series, 48 h

| SMILES | TGI [µM] |
| --- | --- |
| Cc1ccc(O)c(-c2cc(-c3cccc(Br)c3)on2)c1 | 50 |
| ClC(Cl)(Cl)C(N1CCN(c2ccccc2)CC1)N1CCN(c2ccccc2)CC1 | > 100 |
| O=c1c(Cc2c(O)ccc3ccccc23)nnc2sc(-c3nn4c(=O)c(Cc5c(O)ccc6ccccc56)nnc4s3)nn12 | > 100 |
| Cc1[nH]c(=O)[nH]c(=S)c1C(=O)NC1C2CCCCC2NC2CCCCC21 (stereo not given) | 20.7 |
| C/C(=C\COc1cc(O)c2c(c1)C(=O)c1cc(C)cc(O)c1C2=O)CCC1OC1(C)C (stereo not given) | > 100 |

test system: SF-268 CNS; assay: NCI anticancer screen, dose series, 48 h

| SMILES | TGI [µM] |
| --- | --- |
| Cc1ccc(O)c(-c2cc(-c3cccc(Br)c3)on2)c1 | 89.9 |
| ClC(Cl)(Cl)C(N1CCN(c2ccccc2)CC1)N1CCN(c2ccccc2)CC1 | > 100 |
| O=c1c(Cc2c(O)ccc3ccccc23)nnc2sc(-c3nn4c(=O)c(Cc5c(O)ccc6ccccc56)nnc4s3)nn12 | > 100 |
| C/C(=C\COc1cc(O)c2c(c1)C(=O)c1cc(C)cc(O)c1C2=O)CCC1OC1(C)C (stereo not given) | > 100 |

test system: A549 NSCLC; assay: NCI anticancer screen, dose series, 48 h

| SMILES | TGI [µM] |
| --- | --- |
| Cc1ccc(O)c(-c2cc(-c3cccc(Br)c3)on2)c1 | > 100 |
| ClC(Cl)(Cl)C(N1CCN(c2ccccc2)CC1)N1CCN(c2ccccc2)CC1 | > 100 |
| O=c1c(Cc2c(O)ccc3ccccc23)nnc2sc(-c3nn4c(=O)c(Cc5c(O)ccc6ccccc56)nnc4s3)nn12 | > 100 |
| C/C(=C\COc1cc(O)c2c(c1)C(=O)c1cc(C)cc(O)c1C2=O)CCC1OC1(C)C (stereo not given) | > 100 |

test system: HOP-92 NSCLC; assay: NCI anticancer screen, dose series, 48 h

| SMILES | TGI [µM] |
| --- | --- |
| Cc1ccc(O)c(-c2cc(-c3cccc(Br)c3)on2)c1 | > 100 |
| ClC(Cl)(Cl)C(N1CCN(c2ccccc2)CC1)N1CCN(c2ccccc2)CC1 | > 100 |
| O=c1c(Cc2c(O)ccc3ccccc23)nnc2sc(-c3nn4c(=O)c(Cc5c(O)ccc6ccccc56)nnc4s3)nn12 | > 100 |
| Cc1[nH]c(=O)[nH]c(=S)c1C(=O)NC1C2CCCCC2NC2CCCCC21 (stereo not given) | 33.6 |
| C/C(=C\COc1cc(O)c2c(c1)C(=O)c1cc(C)cc(O)c1C2=O)CCC1OC1(C)C (stereo not given) | > 100 |

test system: LOX IMVI melanoma; assay: NCI anticancer screen, dose series, 48 h

| SMILES | TGI [µM] |
| --- | --- |
| Cc1ccc(O)c(-c2cc(-c3cccc(Br)c3)on2)c1 | 31.5 |
| ClC(Cl)(Cl)C(N1CCN(c2ccccc2)CC1)N1CCN(c2ccccc2)CC1 | > 100 |
| O=c1c(Cc2c(O)ccc3ccccc23)nnc2sc(-c3nn4c(=O)c(Cc5c(O)ccc6ccccc56)nnc4s3)nn12 | > 100 |
| Cc1[nH]c(=O)[nH]c(=S)c1C(=O)NC1C2CCCCC2NC2CCCCC21 (stereo not given) | 64 |
| C/C(=C\COc1cc(O)c2c(c1)C(=O)c1cc(C)cc(O)c1C2=O)CCC1OC1(C)C (stereo not given) | > 100 |

test system: SNB-19 CNS; assay: NCI anticancer screen, dose series, 48 h

| SMILES | TGI [µM] |
| --- | --- |
| Cc1ccc(O)c(-c2cc(-c3cccc(Br)c3)on2)c1 | > 100 |
| ClC(Cl)(Cl)C(N1CCN(c2ccccc2)CC1)N1CCN(c2ccccc2)CC1 | > 100 |
| O=c1c(Cc2c(O)ccc3ccccc23)nnc2sc(-c3nn4c(=O)c(Cc5c(O)ccc6ccccc56)nnc4s3)nn12 | > 100 |
| Cc1[nH]c(=O)[nH]c(=S)c1C(=O)NC1C2CCCCC2NC2CCCCC21 (stereo not given) | 29.7 |
| C/C(=C\COc1cc(O)c2c(c1)C(=O)c1cc(C)cc(O)c1C2=O)CCC1OC1(C)C (stereo not given) | > 100 |

test system: SR leukemia; assay: NCI anticancer screen, dose series, 48 h

| SMILES | TGI [µM] |
| --- | --- |
| Cc1ccc(O)c(-c2cc(-c3cccc(Br)c3)on2)c1 | 99.4 |
| ClC(Cl)(Cl)C(N1CCN(c2ccccc2)CC1)N1CCN(c2ccccc2)CC1 | > 100 |
| O=c1c(Cc2c(O)ccc3ccccc23)nnc2sc(-c3nn4c(=O)c(Cc5c(O)ccc6ccccc56)nnc4s3)nn12 | > 100 |
| Cc1[nH]c(=O)[nH]c(=S)c1C(=O)NC1C2CCCCC2NC2CCCCC21 (stereo not given) | > 100 |
| C/C(=C\COc1cc(O)c2c(c1)C(=O)c1cc(C)cc(O)c1C2=O)CCC1OC1(C)C (stereo not given) | > 100 |

test system: CAKI-1 renal; assay: NCI anticancer screen, dose series, 48 h

| SMILES | TGI [µM] |
| --- | --- |
| Cc1ccc(O)c(-c2cc(-c3cccc(Br)c3)on2)c1 | > 100 |
| ClC(Cl)(Cl)C(N1CCN(c2ccccc2)CC1)N1CCN(c2ccccc2)CC1 | > 100 |
| O=c1c(Cc2c(O)ccc3ccccc23)nnc2sc(-c3nn4c(=O)c(Cc5c(O)ccc6ccccc56)nnc4s3)nn12 | > 100 |
| Cc1[nH]c(=O)[nH]c(=S)c1C(=O)NC1C2CCCCC2NC2CCCCC21 (stereo not given) | 33.7 |
| C/C(=C\COc1cc(O)c2c(c1)C(=O)c1cc(C)cc(O)c1C2=O)CCC1OC1(C)C (stereo not given) | 96.5 |

test system: MOLT-4 leukemia; assay: NCI anticancer screen, dose series, 48 h

| SMILES | TGI [µM] |
| --- | --- |
| Cc1ccc(O)c(-c2cc(-c3cccc(Br)c3)on2)c1 | > 100 |
| ClC(Cl)(Cl)C(N1CCN(c2ccccc2)CC1)N1CCN(c2ccccc2)CC1 | > 100 |
| Cc1[nH]c(=O)[nH]c(=S)c1C(=O)NC1C2CCCCC2NC2CCCCC21 (stereo not given) | 43.9 |
| C/C(=C\COc1cc(O)c2c(c1)C(=O)c1cc(C)cc(O)c1C2=O)CCC1OC1(C)C (stereo not given) | > 100 |

test system: HCC-2998 colon; assay: NCI anticancer screen, dose series, 48 h

| SMILES | TGI [µM] |
| --- | --- |
| Cc1ccc(O)c(-c2cc(-c3cccc(Br)c3)on2)c1 | 53.2 |
| O=c1c(Cc2c(O)ccc3ccccc23)nnc2sc(-c3nn4c(=O)c(Cc5c(O)ccc6ccccc56)nnc4s3)nn12 | > 100 |
| Cc1[nH]c(=O)[nH]c(=S)c1C(=O)NC1C2CCCCC2NC2CCCCC21 (stereo not given) | 84.6 |
